Data from patent publication US9242996B2 (Novartis AG, priority 2013, dated 2016).

Legend:
Assay type in all cases: biochemical
activated ERK2 [1] = molecular target: T1, activated ERK2 (Homo sapiens (Human), UniProt P28482); assay: Activated ERK2 kinase assay, ERK2 New conditions (AlphaScreen, ERKtide phosphorylation); conditions: 0.25 nM ERK2, 200 nM ERKtide peptide, 35 μM ATP, 30 min preincubation
Summary of the method: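 0.25 nM ERK2 preincubated 30 min with compound, then reacted 2–3 h at ambient temperature with 200 nM ERKtide and 35 µM ATP (final) in HEPES pH 7.5 buffer. EDTA stop; phospho-peptide detected by AlphaScreen after overnight incubation; IC50 from four-parameter fit.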

ERK2 = ERK2 (Homo sapiens (Human), UniProt P28482); assay: ERK2 Alphascreen
Sequence of ERK2 (P28482 whole entry, species assumed): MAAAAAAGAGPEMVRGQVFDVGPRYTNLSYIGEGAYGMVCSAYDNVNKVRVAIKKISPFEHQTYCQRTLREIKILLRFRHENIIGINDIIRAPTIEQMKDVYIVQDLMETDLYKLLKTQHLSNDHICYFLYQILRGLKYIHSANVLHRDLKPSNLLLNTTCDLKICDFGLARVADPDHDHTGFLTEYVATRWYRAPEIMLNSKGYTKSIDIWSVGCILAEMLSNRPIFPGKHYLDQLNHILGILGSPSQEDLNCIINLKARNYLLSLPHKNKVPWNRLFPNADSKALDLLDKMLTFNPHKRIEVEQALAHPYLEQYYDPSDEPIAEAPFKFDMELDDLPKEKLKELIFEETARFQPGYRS

activated ERK2 [2] = molecular target: T1, activated ERK2; assay: Activated ERK2 (20 pM) Kinase Assay (AlphaScreen, ERKtide phosphorylation); conditions: 0.02 nM ERK2, 400 nM ERKtide peptide, 35 μM ATP, 30 min preincubation
Summary of the method: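 Activated human ERK2 (0.02 nM) preincubated 30 min with compounds, then 400 nM ERKtide and 35 μM ATP added for 4 h at ambient temperature in HEPES pH 7.5, MgCl2, DTT, Tween-20, BSA. EDTA stop; phospho-peptide read by AlphaScreen after overnight dark incubation; four-parameter IC50.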

T1 sequence (P28482 whole entry): as the sequence (P28482 whole entry, species assumed) above

Row | IC50 (activated ERK2 [1]) | IC50 (ERK2) | IC50 (activated ERK2 [2]) | Compound
1 | 1.63 nM | 1.06 nM |  | Nc1ncc(C2CCOCC2)nc1-c1ccc(C(=O)N[C@H](CO)c2ccccc2)cc1 [Example 1, (S)-4-(3-amino-6-(tetrahydro-2H-pyran-4-yl)pyrazin-2-yl)-N-(2-hydroxy-1-phenylethyl)benzamide]
2 | 30.3 nM | 31.2 nM |  | CN(Cc1ccccc1)C(=O)c1ccc(-c2nc(C3CCOCC3)cnc2N)cc1F [Example 52, 4-(3-amino-6-(tetrahydro-2H-pyran-4-yl)pyrazin-2-yl)-N-benzyl-2-fluoro-N-methylbenzamide]
3 | 314 nM | 214 nM |  | Nc1ncc(C2CCOCC2)cc1-c1ccc(C(=O)N[C@H](CO)c2ccccc2)cc1Cl [Example 68, (S)-4-(2-amino-5-(tetrahydro-2H-pyran-4-yl)pyridin-3-yl)-3-chloro-N-(2-hydroxy-1-phenylethyl)benzamide]
4 | 1220 nM | 1160 nM |  | Nc1ncc(C2CCOCC2)cc1-c1ccc(C(=O)NCc2cnccn2)c(F)c1 [Example 75, 4-(2-amino-5-(tetrahydro-2H-pyran-4-yl)pyridin-3-yl)-2-fluoro-N-(pyrazin-2-ylmethyl)benzamide]
5 | 0.752 nM | 0.574 nM |  | Cc1cnccc1-c1cnc(N)c(-c2ccc(C(=O)N[C@H](CO)c3ccccc3)c(F)c2)c1 [Example 83, (S)-4-(6-amino-3′-methyl-3,4′-bipyridin-5-yl)-2-fluoro-N-(2-hydroxy-1-phenylethyl)benzamide]
6 |  | 4.78 nM | 3.75 nM | Nc1ncc(C2CCOCC2)cc1-c1ccc(C(=O)NCc2cccc(Cl)c2)cc1 [Example 86, 4-(2-amino-5-(tetrahydro-2H-pyran-4-yl)pyridin-3-yl)-N-(3-chlorobenzyl)benzamide]
7 |  | 266 nM | 209 nM | Nc1ncc(C2CCOCC2)cc1-c1ccc(C(=O)NCc2ccccc2Cl)cc1 [Example 87, 4-(2-amino-5-(tetrahydro-2H-pyran-4-yl)pyridin-3-yl)-N-(2-chlorobenzyl)benzamide]
8 |  | 81.4 nM | 70.5 nM | Nc1ncc(C2CCOCC2)cc1-c1ccc(C(=O)NCc2ccc(Cl)cc2)cc1 [Example 88, 4-(2-amino-5-(tetrahydro-2H-pyran-4-yl)pyridin-3-yl)-N-(4-chlorobenzyl)benzamide]
9 |  | 9.8 nM | 20.2 nM | Nc1ncc(C2CCOCC2)cc1-c1ccc(C(=O)NCc2cccc(C(F)(F)F)c2)cc1 [Example 89, 4-(2-amino-5-(tetrahydro-2H-pyran-4-yl)pyridin-3-yl)-N-(3-(trifluoromethyl)benzyl)benzamide]
10 |  | 49 nM | 33 nM | Nc1ncc(C2CCOCC2)cc1-c1ncc(C(=O)N[C@H](CO)c2ccccc2)cn1 [Example 90, (S)-2-(2-amino-5-(tetrahydro-2H-pyran-4-yl)pyridin-3-yl)-N-(2-hydroxy-1-phenylethyl)pyrimidine-5-carboxamide]
11 |  | 559 nM | 284 nM | Nc1ncc(C2CCOCC2)cc1-c1ccc(C(=O)NCC2CC2)cc1 [Example 91, 4-(2-amino-5-(tetrahydro-2H-pyran-4-yl)pyridin-3-yl)-N-(cyclopropylmethyl)benzamide]
12 |  | 267 nM | 135 nM | CC(=O)Nc1cccc(CNC(=O)c2ccc(-c3cc(C4CCOCC4)cnc3N)cc2)c1 [Example 92, N-(3-acetamidobenzyl)-4-(2-amino-5-(tetrahydro-2H-pyran-4-yl)pyridin-3-yl)benzamide]
13 |  | 887 nM | 505 nM | Nc1ncc(C2CCOCC2)cc1-c1ccc(C(=O)NCc2cccnc2)cc1 [Example 93, 4-(2-amino-5-(tetrahydro-2H-pyran-4-yl)pyridin-3-yl)-N-(pyridin-3-ylmethyl)benzamide]
14 |  | 0.914 nM | 0.879 nM | Nc1ncc(C2CCOCC2)cc1-c1ccc(C(=O)N[C@H](CO)c2ccccc2)c(F)c1 [Example 94, (S)-4-(2-amino-5-(tetrahydro-2H-pyran-4-yl)pyridin-3-yl)-2-fluoro-N-(2-hydroxy-1-phenylethyl)benzamide]
15 |  | 0.533 nM | 0.136 nM | Cc1cc(-c2nc(C3CCOCC3)cnc2N)ccc1C(=O)N[C@H](CO)c1ccccc1 [Example 95, (S)-4-(3-amino-6-(tetrahydro-2H-pyran-4-yl)pyrazin-2-yl)-N-(2-hydroxy-1-phenylethyl)-2-methylbenzamide]
16 | 233 nM | 110 nM |  | C[C@@H]1CN(c2cnc(N)c(-c3ccc(C(=O)N[C@H](CO)c4ccccc4)cc3)c2)C[C@H](C)O1 [Example 97, 4-(2-amino-5-((2S,6R)-2,6-dimethylmorpholino)pyridin-3-yl)-N-((S)-2-hydroxy-1-phenylethyl)benzamide]
17 |  | 26.3 nM | 15.8 nM | COC(=O)N1CCC(c2cnc(N)c(-c3ccc(C(=O)N[C@H](CO)c4ccccc4)cc3)c2)CC1 [Example 98, (S)-methyl 4-(6-amino-5-(4-((2-hydroxy-1-phenylethyl)carbamoyl)phenyl)pyridin-3-yl)piperidine-1-carboxylate]
18 |  | 11 nM | 7.38 nM | Nc1ncc(N2CCOCC2)cc1-c1ccc(C(=O)N[C@H](CO)c2ccccc2)cc1 [Example 122, (S)-4-(2-amino-5-morpholinopyridin-3-yl)-N-(2-hydroxy-1-phenylethyl)benzamide]
19 |  | 0.265 nM | 0.364 nM | Cc1cnccc1-c1cnc(N)c(-c2ccc(C(=O)N[C@H](CO)c3ccccc3)c(F)c2)n1 [Example 143, (S)-4-(3-amino-6-(3-methylpyridin-4-yl)pyrazin-2-yl)-2-fluoro-N-(2-hydroxy-1-phenylethyl)benzamide]
20 |  | 311 nM | 381 nM | Nc1ncc(C2CCOCC2)cc1-c1ccc(C(=O)NCc2ccnnc2)c(F)c1 [Example 318, 4-(2-amino-5-(tetrahydro-2H-pyran-4-yl)pyridin-3-yl)-2-fluoro-N-(pyridazin-4-ylmethyl) benzamide]
21 | 6.83 nM | 6.17 nM |  | Nc1ncc(C2CCOCC2)nc1-c1ccc(C(=O)NCc2ccccc2)c(F)c1 [Example 324, 4-(3-amino-6-(tetrahydro-2H-pyran-4-yl)pyrazin-2-yl)-N-benzyl-2-fluorobenzamide]
22 | 34.6 nM | 33.8 nM |  | Nc1ncc(C2CCOCC2)nc1-c1ccc(C(=O)NC[C@@H](O)c2ccccc2)c(F)c1 [Example 333, (S)-4-(3-amino-6-(tetrahydro-2H-pyran-4-yl)pyrazin-2-yl)-2-fluoro-N-(2-hydroxy-2-phenylethyl) benzamide]
23 | 25.2 nM | 19.4 nM |  | Cc1cccc(CNC(=O)c2ccc(-c3nc(C4CCOCC4)cnc3N)cc2F)n1 [Example 334, 4-(3-amino-6-(tetrahydro-2H-pyran-4-yl)pyrazin-2-yl)-2-fluoro-N-((6-methylpyridin-2-yl)methyl) benzamide]
24 |  | 0.544 nM | 0.593 nM | (S)-4-(3-amino-6- (tetrahydro-2H- pyran-4- yl)pyrazin-2-yl)-2- fluoro-N-(2- hydroxy-1- phenylethyl) benzamide [Example 325]
